Measured values: ChEMBL document CHEMBL4000229, “Structure-activity relationships of diverse xanthones against multidrug resistant human tumor cells” (Bioorg Med Chem Lett, 2017)

Columns and labels:
Assay type in all cases: functional, cell-based
SMMC-7721 = assay: Cytotoxicity against Taxol-resistant human SMMC7721 cells measured after 48 hrs by MTT assay; details: SMMC-7721, 48 h
A549 = assay: Cytotoxicity against Taxol-resistant human A549 cells measured after 48 hrs by MTT assay; details: A549, 48 h
NCI/ADR-RES = assay: Cytotoxicity against human MCF7/ADR cells measured after 48 hrs by MTT assay

COc1cc(O)c2c(=O)c3cc(O)ccc3oc2c1 gave an IC50 (SMMC-7721) of 87.4 µM, an IC50 (A549) of 104 µM and an IC50 (NCI/ADR-RES) of 31.8 µM.

In the case of O=c1c2cc(O)ccc2oc2cc(O)cc(O)c12, the IC50 (SMMC-7721) is reported as 38.5 µM, the IC50 (A549) is reported as 146 µM and the IC50 (NCI/ADR-RES) is reported as 193 µM.

Compound COc1c(O)cc2oc3cccc(O)c3c(=O)c2c1O has an IC50 (SMMC-7721) of 43.8 µM, an IC50 (A549) of over 200 µM and an IC50 (NCI/ADR-RES) of over 200 µM.

Work on COc1c(O)cc(OC)c2c(=O)c3c(O)cccc3oc12 yielded an IC50 (SMMC-7721) of 14.7 µM, an IC50 (A549) of 25.6 µM and an IC50 (NCI/ADR-RES) of 30.4 µM.

COc1cc(OC)c2c(=O)c3c(O)cccc3oc2c1OC was tested, and the IC50 (SMMC-7721) was 50.9 µM, the IC50 (A549) was 34.6 µM and the IC50 (NCI/ADR-RES) was 59.1 µM.

O=c1c2cc(O)ccc2oc2cccc(O)c12 showed an IC50 (SMMC-7721) of 60.4 µM, an IC50 (A549) of over 200 µM and an IC50 (NCI/ADR-RES) of over 200 µM.

Compound COc1ccc2oc3ccc(O)c(OC)c3c(=O)c2c1 has an IC50 (SMMC-7721) of 83.7 µM, an IC50 (A549) of 35.2 µM and an IC50 (NCI/ADR-RES) of 102 µM.

For COc1ccc2oc3ccc(O)cc3c(=O)c2c1OC, the IC50 (SMMC-7721) was 81.8 µM, the IC50 (A549) was 178 µM and the IC50 (NCI/ADR-RES) was 53.5 µM.

With COc1cc2c(=O)c3c(O)c(OC)c(O)cc3oc2cc1O the IC50 (SMMC-7721) was 102 µM, the IC50 (A549) was over 200 µM and the IC50 (NCI/ADR-RES) was over 200 µM.

Compound COc1c(O)cc2oc3ccc(O)cc3c(=O)c2c1O has an IC50 (SMMC-7721) of 48.9 µM, an IC50 (A549) of 167 µM and an IC50 (NCI/ADR-RES) of over 200 µM.

With COc1cc(O)c2c(=O)c3cc(O)ccc3oc2c1OC the IC50 (SMMC-7721) was 63 µM, the IC50 (A549) was 62.3 µM and the IC50 (NCI/ADR-RES) was 57.3 µM.

COc1ccc(O)c2c(=O)c3cc(O)ccc3oc12 showed an IC50 (SMMC-7721) of 15.1 µM, an IC50 (A549) of 38.9 µM and an IC50 (NCI/ADR-RES) of 185 µM.

Work on COc1c(O)ccc2oc3ccc(O)cc3c(=O)c12 yielded an IC50 (SMMC-7721) of 56.3 µM, an IC50 (A549) of 37.1 µM and an IC50 (NCI/ADR-RES) of 109 µM.
